In patent publication US20050096327A1, “Novel norepinephrine reuptake inhibitors for the treatment of central nervous system disorders” (priority 2003, published 2005):
Structures can show the parent of a compound that is named as a salt.

Experiments:
[1] = molecular target: T1, human norepinephrine transporter (Homo sapiens, UniProt P23975); assay: hNET receptor binding ([125I]-RTI-55, membranes of transfected HEK-293 cells); details: 50 pM [125I]-RTI-55, 90 min room temperature; IC50 converted by Cheng-Prusoff
T1 construct: host or cells: HEK-293
Method in brief: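 Competition binding on membranes from HEK-293 cells transfected with human NET, using 50 pM [125I]-RTI-55 in Krebs-HEPES pH 7.4, drug 10^−5 to 10^−12 M in duplicate, 90 min at room temperature, filtration. Nonspecific binding defined with 10 μM desipramine; IC50 converted to Ki by Cheng-Prusoff.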

T1 sequence (P23975 whole entry): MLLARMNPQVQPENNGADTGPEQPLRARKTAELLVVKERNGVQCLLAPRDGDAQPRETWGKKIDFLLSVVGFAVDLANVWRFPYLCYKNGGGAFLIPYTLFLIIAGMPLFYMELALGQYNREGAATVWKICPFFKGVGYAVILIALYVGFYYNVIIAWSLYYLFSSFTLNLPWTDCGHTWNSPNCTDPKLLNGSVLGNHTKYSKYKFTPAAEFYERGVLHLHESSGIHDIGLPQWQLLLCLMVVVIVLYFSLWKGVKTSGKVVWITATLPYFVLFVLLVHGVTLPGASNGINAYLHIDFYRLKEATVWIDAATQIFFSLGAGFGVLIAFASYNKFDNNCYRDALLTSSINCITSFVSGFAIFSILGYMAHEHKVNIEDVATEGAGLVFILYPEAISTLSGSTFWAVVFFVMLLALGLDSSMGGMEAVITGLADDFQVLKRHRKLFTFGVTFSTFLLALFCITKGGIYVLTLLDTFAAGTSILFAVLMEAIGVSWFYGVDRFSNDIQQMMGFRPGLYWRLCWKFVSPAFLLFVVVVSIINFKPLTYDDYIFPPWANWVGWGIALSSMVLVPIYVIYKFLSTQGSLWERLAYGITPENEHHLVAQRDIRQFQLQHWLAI

Row | Structure (SMILES) | melting point [°C] | Ki [1] [nM]
1 | c1ccc(-c2nc(N3CC4CNCC4C3)nc3ccccc23)cc1 (stereo not shown) (as salt: salt) [Example 81, 2-(Hexahydro-pyrrolo[3,4-c]pyrrol-2-yl)-4-phenyl-quinazoline] | 267 to 270 | 
2 | Cl.c1ccc(-c2nc(C3CCCNC3)nc3ccccc23)cc1 (stereo not shown) (hydrate or solvate) | 231 to 232 | 
3 | Cc1ccc(-c2nc(N3CCN(C)CC3)nc3ccccc23)cc1 [Example 2, 2-(4-Methyl-piperazin-1-yl)-4-p-tolyl-quinazoline] | 85 to 87 | 77.3
4 | Cc1ccccc1-c1nc(N2CCN(C)CC2)nc2ccccc12 [Example 4, 2-(4-Methyl-piperazin-1-yl)-4-o-tolyl-quinazoline] | 91 to 94 | 34.1
5 | CN1CC2CCCC(C1)N2c1nc(-c2ccccc2)c2ccccc2n1 [Example 5, 2-(3-Methyl-3,9-diaza-bicyclo[3.3.1]non-9-yl)-4-phenyl-quinazoline] | 118 to 121 | 42
6 | CC(C)c1nc(N2CCNCC2)nc2ccccc12.Cl [Example 6, 4-Isopropyl-2-piperazin-1-yl-quinazoline hydrochloride] | 253 to 254 | 16.5
7 | Cl.c1ccc(-c2nc(N3CCCNCC3)nc3ccccc23)cc1 [Example 7, 2-[1,4]Diazepan-1-yl-4-phenyl-quinazoline hydrochloride] | 230 to 231 | 2
8 | CC1CN(c2nc(-c3ccccc3)c3ccccc3n2)C(C)CN1.Cl (stereo not shown) [Example 9, 2-(2,5-Dimethyl-piperazin-1-yl)-4-phenyl-quinazoline hydrochloride] | 221 to 222 | 22
9 | Cl.NCCC1CCCN(c2nc(-c3ccccc3)c3ccccc3n2)C1 (stereo not shown) [Example 11, 2-[1-(4-Phenyl-quinazolin-2-yl)-piperidin-3-yl]-ethylamine hydrochloride] | 86 to 88 | 80.5
10 | Cl.N[C@H]1CCN(c2nc(-c3ccccc3)c3ccccc3n2)C1 [Example 14, (S)-(+)-1-(4-Phenyl-quinazolin-2-yl)-pyrrolidin-3-ylamine hydrochloride] | 274 to 275 | 3.7
11 | CN1CCN(c2nc(-c3ccccc3F)c3ccccc3n2)CC1 [Example 18, 4-(2-Fluoro-phenyl)-2-(4-methyl-piperazin-1-yl)-quinazoline] | 123 to 124 | 12
12 | Cl.c1ccc(-c2nc(N3CC4CCCC(C3)N4)nc3ccccc23)cc1 [Example 32, 2-(3,9-Diaza-bicyclo[3.3.1]non-3-yl)-4-phenyl-quinazoline hydrochloride] | > 300 | 38.5
13 | COC(=O)C1(c2nc(-c3ccccc3)c3ccccc3n2)CCNCC1.Cl [Example 50, 4-(4-Phenyl-quinazolin-2-yl)piperidine-4-carboxylic acid methyl ester hydrochloride] | 227 to 228 | 9.8
14 | COC(=O)C1(c2nc(-c3ccccc3F)c3ccccc3n2)CCNCC1.Cl [Example 51, 4-[4-(2-Fluoro-phenyl)-quinazolin-2-yl]-piperidine-4-carboxylic acid methyl ester hydrochloride] | 210 to 211 | 15.1
15 | COC(=O)C1(c2nc(-c3ccccc3)c3ccccc3n2)CCCNC1.Cl (stereo not shown) [Example 52, 3-(4-Phenyl-quinazolin-2-yl)-piperidine-3-carboxylic acid methyl ester hydrochloride] | 143 to 145 | 53.4

More lines, now with the values ahead:

Row | melting point [°C] | Ki [1] [nM] | Structure (SMILES)
16 | 101 to 122 | 29.7 | CN1CCN(c2nc(-c3ccccc3)c3ccccc3n2)CC1 [Example 1, 2-(4-Methyl-piperazin-1-yl)-4-phenyl-quinazoline]
17 | 193 to 194 | 4.8 | CC(C)c1nc(N2CCCNCC2)nc2ccccc12.Cl [Example 8, 2-[1,4]Diazepan-1-yl-4-isopropyl-quinazoline hydrochloride]
18 | > 300 | 95.5 | Cl.NC1CCN(c2nc(-c3ccccc3)c3ccccc3n2)CC1 [Example 12, 1-(4-Phenyl-quinazolin-2-yl)-piperidin-4-ylamine hydrochloride]
19 | 154 to 157 | 4.6 | C[C@H]1CNCCN1c1nc(-c2ccccc2)c2ccccc2n1.Cl [Example 15, (S)-(+)-2-(2-Methyl-piperazin-1-yl)-4-phenyl-quinazoline hydrochloride]
20 | 261 to 265 | 31 | Cl.N[C@@H]1CCN(c2nc(-c3ccccc3)c3ccccc3n2)C1 [Example 16, (R)-(−)1-(4-Phenyl-quinazolin-2-yl)-pyrrolidin-3-yl-amine hydrochloride]
21 | 190 to 192 | 3.7 | Cl.Fc1ccccc1-c1nc(N2CCCNCC2)nc2ccccc12 [Example 21, 2-[1,4]Diazepan-1-yl-4-(2-fluoro-phenyl)-quinazoline hydrochloride]
22 | 130 to 131 | 82 | CN1CCN(c2nc(-c3ccc(F)cc3)c3ccccc3n2)CC1 [Example 25, 4-(4-Fluoro-phenyl)-2-(4-methyl-piperazin-1-yl)-quinazoline]
23 | 134 to 135 | 34.9 | CN1CCN(c2nc(-c3cccc(F)c3)c3ccccc3n2)CC1 [Example 26, 4-(3-Fluoro-phenyl)-2-(4-methyl-piperazin-1-yl)-quinazoline]
24 | 216 to 217 | 67.4 | CN1CCN(c2nc(-c3cccs3)c3ccccc3n2)CC1.O=C(O)C(=O)O [Example 27, 2-(4-Methyl-piperazin-1-yl)-4-thiophen-2-yl-quinazoline oxalate]
25 | 150 to 161 | 5.5 | C[C@@H]1CNCCN1c1nc(-c2ccccc2)c2ccccc2n1.Cl [Example 30, (R)-(−)-2-(2-Methyl-piperazin-1-yl)-4-phenyl-quinazoline hydrochloride]
26 | 285 to 287 | 3.8 | Cl.N[C@H]1CCN(c2nc(-c3ccccc3F)c3ccccc3n2)C1 [Example 34, (S)-(+)-1-[4-(2-Fluoro-phenyl)-quinazolin-2-yl]-pyrrolidin-3-ylamine hydrochloride]
27 | 266 to 268 | 4 | Cl.Fc1cccc(Cl)c1-c1nc(N2CCNCC2)nc2ccccc12 [Example 36, 4-(2-Chloro-6-fluoro-phenyl)-2-piperazin-1-yl-quinazoline hydrochloride]
28 | 273 to 276 | 3 | Cl.Fc1cccc(-c2nc(N3CCNCC3)nc3ccccc23)c1F [Example 37, 4-(2,3-Difluoro-phenyl)-2-piperazin-1-yl-quinazoline hydrochloride]
29 | 270 to 278 | 41 | Cl.Fc1ccccc1-c1nc(N2CC3CNCC3C2)nc2ccccc12 (stereo not shown) [Example 39, 4-(2-Fluoro-phenyl)-2-(hexahydro-pyrrolo[3,4-c]pyrrol-2-yl)-quinazoline hydrochloride]
30 | 288 to 289 | 18 | Cl.N[C@H]1CCCN(c2nc(-c3ccccc3F)c3ccccc3n2)C1 [Example 40, (S)-(+)-1-[4-(2-Fluoro-phenyl)-quinazolin-2-yl]-piperidin-3-ylamine hydrochloride]
